Experimental data from PubChem BioAssay (NCI).
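The concentration for 50% growth inhibition is given as GI50. TGI: concentration producing complete growth inhibition.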

What was measured:
Test in all cases: growth of human tumour cells (NCI), 384-well format
U251 glioblastoma = tested on: U251 glioblastoma
SN12C renal = tested on: SN12C renal
SF-295 CNS = tested on: SF-295 CNS
MDA-MB-468 breast = tested on: MDA-MB-468 breast
ACHN renal = tested on: ACHN renal
HL-60(TB) leukemia = tested on: HL-60(TB) leukemia
NCI-H226 lung = tested on: NCI-H226 lung
TK-10 renal = tested on: TK-10 renal
HT29 colon = tested on: HT29 colon
MCF7 breast = tested on: MCF7 breast
NCI/ADR-RES ovarian = tested on: NCI/ADR-RES ovarian
HCT-116 colon = tested on: HCT-116 colon
CAKI-1 renal = tested on: CAKI-1 renal
LOX IMVI melanoma = tested on: LOX IMVI melanoma
SF-539 CNS = tested on: SF-539 CNS
A498 renal = tested on: A498 renal
RPMI-8226 leukemia = tested on: RPMI-8226 leukemia
DU-145 prostate = tested on: DU-145 prostate
MDA-MB-435 melanoma = tested on: MDA-MB-435 melanoma
KM12 colon = tested on: KM12 colon
SF-268 CNS = tested on: SF-268 CNS
HCC-2998 colon = tested on: HCC-2998 colon
NCI-H322M lung = tested on: NCI-H322M lung
HCT-15 colon = tested on: HCT-15 colon
T-47D breast = tested on: T-47D breast
UO-31 renal = tested on: UO-31 renal
NCI-H23 lung = tested on: NCI-H23 lung
786-0 renal = tested on: 786-0 renal
SW-620 colon = tested on: SW-620 colon
SR leukemia = tested on: SR leukemia
SK-MEL-28 melanoma = tested on: SK-MEL-28 melanoma
SNB-75 CNS = tested on: SNB-75 CNS
MOLT-4 leukemia = tested on: MOLT-4 leukemia
K-562 leukemia = tested on: K-562 leukemia
OVCAR-4 ovarian = tested on: OVCAR-4 ovarian
RXF 393 renal = tested on: RXF 393 renal
NCI-H522 lung = tested on: NCI-H522 lung
EKVX NSCLC = tested on: EKVX NSCLC
OVCAR-8 ovarian = tested on: OVCAR-8 ovarian
PC-3 prostate = tested on: PC-3 prostate
UACC-62 melanoma = tested on: UACC-62 melanoma
HOP-62 NSCLC = tested on: HOP-62 NSCLC
OVCAR-3 ovarian = tested on: OVCAR-3 ovarian
COLO 205 colon = tested on: COLO 205 colon
SK-MEL-5 melanoma = tested on: SK-MEL-5 melanoma
MDA-MB-231 breast = tested on: MDA-MB-231 breast
HOP-92 NSCLC = tested on: HOP-92 NSCLC

Work on O=C(O)c1ccc(CN2CCC(CN[C@@H]3C[C@H]3c3ccccc3)CC2)cc1 yielded a GI50 (U251 glioblastoma) of over 100 µM, a TGI (U251 glioblastoma) of over 100 µM and a GI50 (SN12C renal) of over 100 µM. The TGI (SN12C renal) was over 100 µM, the GI50 (SF-295 CNS) was over 100 µM and the TGI (SF-295 CNS) was over 100 µM. The GI50 (MDA-MB-468 breast) was over 100 µM, the TGI (MDA-MB-468 breast) was over 100 µM and the GI50 (ACHN renal) was over 100 µM. For the same compound, the TGI (ACHN renal) was over 100 µM, the GI50 (HL-60(TB) leukemia) was over 100 µM and the TGI (HL-60(TB) leukemia) was over 100 µM. For the same compound, the GI50 (NCI-H226 lung) was over 100 µM, the TGI (NCI-H226 lung) was over 100 µM and the GI50 (TK-10 renal) was over 100 µM. The TGI (TK-10 renal) was over 100 µM, the GI50 (HT29 colon) was over 100 µM and the TGI (HT29 colon) was over 100 µM. It also gave a GI50 (MCF7 breast) of over 100 µM, a TGI (MCF7 breast) of over 100 µM and a GI50 (NCI/ADR-RES ovarian) of over 100 µM. For the same compound, the TGI (NCI/ADR-RES ovarian) was over 100 µM, the GI50 (HCT-116 colon) was over 100 µM and the TGI (HCT-116 colon) was over 100 µM. The GI50 (CAKI-1 renal) was over 100 µM, the TGI (CAKI-1 renal) was over 100 µM and the GI50 (LOX IMVI melanoma) was over 100 µM. It also gave a TGI (LOX IMVI melanoma) of over 100 µM, a GI50 (SF-539 CNS) of over 100 µM and a TGI (SF-539 CNS) of over 100 µM. The GI50 (A498 renal) was over 100 µM, the TGI (A498 renal) was over 100 µM and the GI50 (RPMI-8226 leukemia) was over 100 µM. The TGI (RPMI-8226 leukemia) was over 100 µM, the GI50 (DU-145 prostate) was over 100 µM and the TGI (DU-145 prostate) was over 100 µM. For the same compound, the GI50 (MDA-MB-435 melanoma) was over 100 µM, the TGI (MDA-MB-435 melanoma) was over 100 µM and the GI50 (KM12 colon) was over 100 µM. The TGI (KM12 colon) was over 100 µM, the GI50 (SF-268 CNS) was over 100 µM and the TGI (SF-268 CNS) was over 100 µM. The GI50 (HCC-2998 colon) was over 100 µM, the TGI (HCC-2998 colon) was over 100 µM and the GI50 (NCI-H322M lung) was over 100 µM. It also gave a TGI (NCI-H322M lung) of over 100 µM, a GI50 (HCT-15 colon) of over 100 µM and a TGI (HCT-15 colon) of over 100 µM. The GI50 (T-47D breast) was over 100 µM, the TGI (T-47D breast) was over 100 µM and the GI50 (UO-31 renal) was over 100 µM. It also gave a TGI (UO-31 renal) of over 100 µM, a GI50 (NCI-H23 lung) of over 100 µM and a TGI (NCI-H23 lung) of over 100 µM. The GI50 ([…]-0 renal) was over 100 µM, the TGI (786-0 renal) was over 100 µM and the GI50 (SW-620 colon) was over 100 µM. The TGI (SW-620 colon) was over 100 µM, the GI50 (SR leukemia) was over 100 µM and the TGI (SR leukemia) was over 100 µM. It also gave a GI50 (SK-MEL-28 melanoma) of over 100 µM, a TGI (SK-MEL-28 melanoma) of over 100 µM and a GI50 (SNB-75 CNS) of over 100 µM. The TGI (SNB-75 CNS) was over 100 µM, the GI50 (MOLT-4 leukemia) was over 100 µM and the TGI (MOLT-4 leukemia) was over 100 µM. It also gave a GI50 (K-562 leukemia) of over 100 µM, a TGI (K-562 leukemia) of over 100 µM and a GI50 (OVCAR-4 ovarian) of over 100 µM. The TGI (OVCAR-4 ovarian) was over 100 µM, the GI50 (RXF 393 renal) was over 100 µM and the TGI (RXF 393 renal) was over 100 µM. The GI50 (NCI-H522 lung) was over 100 µM, the TGI (NCI-H522 lung) was over 100 µM and the GI50 (EKVX NSCLC) was over 100 µM. For the same compound, the TGI (EKVX NSCLC) was over 100 µM, the GI50 (OVCAR-8 ovarian) was over 100 µM and the TGI (OVCAR-8 ovarian) was over 100 µM. It also gave a GI50 (PC-3 prostate) of over 100 µM, a TGI (PC-3 prostate) of over 100 µM and a GI50 (UACC-62 melanoma) of over 100 µM. The TGI (UACC-62 melanoma) was over 100 µM, the GI50 (HOP-62 NSCLC) was over 100 µM and the TGI (HOP-62 NSCLC) was over 100 µM. For the same compound, the GI50 (OVCAR-3 ovarian) was over 100 µM, the TGI (OVCAR-3 ovarian) was over 100 µM and the GI50 (COLO 205 colon) was over 100 µM. For the same compound, the TGI (COLO 205 colon) was over 100 µM, the GI50 (SK-MEL-5 melanoma) was over 100 µM and the TGI (SK-MEL-5 melanoma) was over 100 µM. For the same compound, the GI50 (MDA-MB-231 breast) was over 100 µM, the TGI (MDA-MB-231 breast) was over 100 µM and the GI50 (HOP-92 NSCLC) was over 100 µM. It also gave a TGI (HOP-92 NSCLC) of over 100 µM.
